Tested on: brains, heart, liver, muscle, and DRG of the NHPs
Test: Maturation of TTM-001 and TTM-002 capsids, NGS enrichment in NHP tissues
Assay type: in vivo
Conditions: NGS, relative to AAV9 control; for Fold Enrichment relative to AAV9, Liver RNA (NHP): TTM-001 and TTM-002 matured AAV capsid variants
From the text: This Example describes maturation of the AAV9 capsid variants, TTM-001 (SEQ ID NO: 981 (amino acid) and 983 (DNA), comprising SEQ ID NO: 941 (encoded by SEQ ID NO: 942)) and TTM-002 (SEQ ID NO: 982 (amino acid) and 984 (DNA), comprising SEQ ID NO: […] (encoded by SEQ ID NO: 944)) in NHPs to further enhance their transduction and biodistribution in the central nervous system as well as other tissues, and evolve the AAV capsid variants to provide further cross-species compatibility. Two approaches were used to mature the TTM-001 and TTM-002 capsid sequences in order to randomize and mutate within and around the peptide insert comprised within loop IV of the capsid variant. […] In the first maturation approach, sets of three contiguous amino acids were randomized across the mutagenesis region in the TTM-001 and TTM-002 sequences, which spanned from position 450 to position 466, numbered according to SEQ ID NO: 981 and 982. In the second maturation approach, mutagenic primers were used to introduce point mutations at a low frequency, scattered across the mutagenesis region in the TTM-001 and TTM-002 sequences ranging from position 449 to position 466, numbered according to SEQ ID NO: 981 and 982. AAV capsid variants arising from each maturation approach for TTM-001 and TTM-002 were pooled together, for subsequent testing and characterization in NHPs.
The library of pooled matured AAV capsid variants generated using the first maturation approach and the second maturation approach for the TTM-001 and TTM-002 AAV capsid variants were injected into two NHPs. […] Following RNA recovery and RT-PCR amplification, a systematic NGS enrichment analysis was performed to calculate the fold enrichment ratio relative to an AAV9 control, and the peptides comprised within the variants were identified.
Following the RNA recovery and NGS analysis from the second maturation approach, approximately 680,000 capsid variants were identified. The 680,000 matured capsid variants were then filtered based on samples with a raw virus count greater than 10 and a coefficient of variance (CV) of less than 1, which was calculated for each peptide across the brain samples taken from the two NHPs. […] Using this filtering criteria, this led to approximately 64,000 matured capsid variants.

KTINGSGSPHSKFKNQQT
Fold Enrichment relative to AAV9, DRG (NHP): 0.000 fold
Fold Enrichment relative to AAV9, Brain (NHP): 0.000 fold
Fold Enrichment relative to AAV9, Heart (NHP): 0.000 fold
Fold Enrichment relative to AAV9, Liver DNA (NHP): 1.074 fold
Fold Enrichment relative to AAV9, Liver RNA (NHP): 21.951 fold
Fold Enrichment relative to AAV9, Muscle (NHP): 0.000 fold

KTINGSGSPHSKFRQQQT
Fold Enrichment relative to AAV9, DRG (NHP): 0.000 fold
Fold Enrichment relative to AAV9, Brain (NHP): 0.000 fold
Fold Enrichment relative to AAV9, Heart (NHP): 0.000 fold
Fold Enrichment relative to AAV9, Liver DNA (NHP): 3.260 fold
Fold Enrichment relative to AAV9, Liver RNA (NHP): 38.665 fold
Fold Enrichment relative to AAV9, Muscle (NHP): 0.000 fold

KTINGSGSPHSKGCTQQT
Fold Enrichment relative to AAV9, DRG (NHP): 0.000 fold
Fold Enrichment relative to AAV9, Brain (NHP): 0.000 fold
Fold Enrichment relative to AAV9, Heart (NHP): 0.000 fold
Fold Enrichment relative to AAV9, Liver DNA (NHP): 0.529 fold
Fold Enrichment relative to AAV9, Liver RNA (NHP): 26.068 fold
Fold Enrichment relative to AAV9, Muscle (NHP): 0.000 fold

KTINGSGSPHSKIRGQQT
Fold Enrichment relative to AAV9, DRG (NHP): 0.000 fold
Fold Enrichment relative to AAV9, Brain (NHP): 0.000 fold
Fold Enrichment relative to AAV9, Heart (NHP): 0.000 fold
Fold Enrichment relative to AAV9, Liver DNA (NHP): 1.584 fold
Fold Enrichment relative to AAV9, Liver RNA (NHP): 18.150 fold
Fold Enrichment relative to AAV9, Muscle (NHP): 0.000 fold

KTINGSGSPHSKIRRQQT
Fold Enrichment relative to AAV9, DRG (NHP): 0.000 fold
Fold Enrichment relative to AAV9, Brain (NHP): 0.000 fold
Fold Enrichment relative to AAV9, Heart (NHP): 0.000 fold
Fold Enrichment relative to AAV9, Liver DNA (NHP): 1.388 fold
Fold Enrichment relative to AAV9, Liver RNA (NHP): 53.528 fold
Fold Enrichment relative to AAV9, Muscle (NHP): 0.000 fold

KTINGSGSPHSKKTSQQT
Fold Enrichment relative to AAV9, DRG (NHP): 0.000 fold
Fold Enrichment relative to AAV9, Brain (NHP): 0.000 fold
Fold Enrichment relative to AAV9, Heart (NHP): 0.000 fold
Fold Enrichment relative to AAV9, Liver DNA (NHP): 1.344 fold
Fold Enrichment relative to AAV9, Liver RNA (NHP): 15.244 fold
Fold Enrichment relative to AAV9, Muscle (NHP): 0.000 fold

KTINGSGSPHSKKVFQQT
Fold Enrichment relative to AAV9, DRG (NHP): 0.000 fold
Fold Enrichment relative to AAV9, Brain (NHP): 0.000 fold
Fold Enrichment relative to AAV9, Heart (NHP): 0.000 fold
Fold Enrichment relative to AAV9, Liver DNA (NHP): 4.480 fold
Fold Enrichment relative to AAV9, Liver RNA (NHP): 43.747 fold
Fold Enrichment relative to AAV9, Muscle (NHP): 0.000 fold

KTINGSGSPHSKLCTQQT
Fold Enrichment relative to AAV9, DRG (NHP): 0.000 fold
Fold Enrichment relative to AAV9, Brain (NHP): 0.000 fold
Fold Enrichment relative to AAV9, Heart (NHP): 0.000 fold
Fold Enrichment relative to AAV9, Liver DNA (NHP): 1.269 fold
Fold Enrichment relative to AAV9, Liver RNA (NHP): 18.674 fold
Fold Enrichment relative to AAV9, Muscle (NHP): 0.000 fold

KTINGSGSPHSKLFWQQT
Fold Enrichment relative to AAV9, DRG (NHP): 0.000 fold
Fold Enrichment relative to AAV9, Brain (NHP): 0.000 fold
Fold Enrichment relative to AAV9, Heart (NHP): 0.000 fold
Fold Enrichment relative to AAV9, Liver DNA (NHP): 4.178 fold
Fold Enrichment relative to AAV9, Liver RNA (NHP): 37.022 fold
Fold Enrichment relative to AAV9, Muscle (NHP): 0.000 fold

KTINGSGSPHSKLKRQQT
Fold Enrichment relative to AAV9, DRG (NHP): 0.000 fold
Fold Enrichment relative to AAV9, Brain (NHP): 0.000 fold
Fold Enrichment relative to AAV9, Heart (NHP): 0.000 fold
Fold Enrichment relative to AAV9, Liver DNA (NHP): 6.884 fold
Fold Enrichment relative to AAV9, Liver RNA (NHP): 76.103 fold
Fold Enrichment relative to AAV9, Muscle (NHP): 0.000 fold

KTINGSGSPHSKLPKQQT
Fold Enrichment relative to AAV9, DRG (NHP): 0.000 fold
Fold Enrichment relative to AAV9, Brain (NHP): 0.000 fold
Fold Enrichment relative to AAV9, Heart (NHP): 0.000 fold
Fold Enrichment relative to AAV9, Liver DNA (NHP): 0.274 fold
Fold Enrichment relative to AAV9, Liver RNA (NHP): 11.856 fold
Fold Enrichment relative to AAV9, Muscle (NHP): 0.000 fold

KTINGSGSPHSKMICQQT
Fold Enrichment relative to AAV9, DRG (NHP): 0.000 fold
Fold Enrichment relative to AAV9, Brain (NHP): 0.000 fold
Fold Enrichment relative to AAV9, Heart (NHP): 0.000 fold
Fold Enrichment relative to AAV9, Liver DNA (NHP): 0.144 fold
Fold Enrichment relative to AAV9, Liver RNA (NHP): 21.036 fold
Fold Enrichment relative to AAV9, Muscle (NHP): 0.000 fold

KTINGSGSPHSKMPCQQT
Fold Enrichment relative to AAV9, DRG (NHP): 0.000 fold
Fold Enrichment relative to AAV9, Brain (NHP): 0.000 fold
Fold Enrichment relative to AAV9, Heart (NHP): 0.000 fold
Fold Enrichment relative to AAV9, Liver DNA (NHP): 1.063 fold
Fold Enrichment relative to AAV9, Liver RNA (NHP): 15.343 fold
Fold Enrichment relative to AAV9, Muscle (NHP): 0.000 fold

KTINGSGSPHSKNSRQQT
Fold Enrichment relative to AAV9, DRG (NHP): 0.000 fold
Fold Enrichment relative to AAV9, Brain (NHP): 0.000 fold
Fold Enrichment relative to AAV9, Heart (NHP): 0.000 fold
Fold Enrichment relative to AAV9, Liver DNA (NHP): 1.093 fold
Fold Enrichment relative to AAV9, Liver RNA (NHP): 11.280 fold
Fold Enrichment relative to AAV9, Muscle (NHP): 0.000 fold

KTINGSGSPHSKPFRQQT
Fold Enrichment relative to AAV9, DRG (NHP): 0.000 fold
Fold Enrichment relative to AAV9, Brain (NHP): 0.000 fold
Fold Enrichment relative to AAV9, Heart (NHP): 0.000 fold
Fold Enrichment relative to AAV9, Liver DNA (NHP): 8.700 fold
Fold Enrichment relative to AAV9, Liver RNA (NHP): 29.842 fold
Fold Enrichment relative to AAV9, Muscle (NHP): 0.000 fold

KTINGSGSPHSKPKRQQT
Fold Enrichment relative to AAV9, DRG (NHP): 0.000 fold
Fold Enrichment relative to AAV9, Brain (NHP): 0.000 fold
Fold Enrichment relative to AAV9, Heart (NHP): 0.000 fold
Fold Enrichment relative to AAV9, Liver DNA (NHP): 2.832 fold
Fold Enrichment relative to AAV9, Liver RNA (NHP): 52.881 fold
Fold Enrichment relative to AAV9, Muscle (NHP): 0.000 fold

KTINGSGSPHSKQRPQQT
Fold Enrichment relative to AAV9, DRG (NHP): 0.000 fold
Fold Enrichment relative to AAV9, Brain (NHP): 0.000 fold
Fold Enrichment relative to AAV9, Heart (NHP): 0.000 fold
Fold Enrichment relative to AAV9, Liver DNA (NHP): 2.347 fold
Fold Enrichment relative to AAV9, Liver RNA (NHP): 11.130 fold
Fold Enrichment relative to AAV9, Muscle (NHP): 0.000 fold

KTINGSGSPHSKRHRQQT
Fold Enrichment relative to AAV9, DRG (NHP): 0.000 fold
Fold Enrichment relative to AAV9, Brain (NHP): 0.000 fold
Fold Enrichment relative to AAV9, Heart (NHP): 0.000 fold
Fold Enrichment relative to AAV9, Liver DNA (NHP): 4.648 fold
Fold Enrichment relative to AAV9, Liver RNA (NHP): 73.225 fold
Fold Enrichment relative to AAV9, Muscle (NHP): 0.000 fold

KTINGSGSPHSKRKRQQT
Fold Enrichment relative to AAV9, DRG (NHP): 0.000 fold
Fold Enrichment relative to AAV9, Brain (NHP): 0.000 fold
Fold Enrichment relative to AAV9, Heart (NHP): 0.000 fold
Fold Enrichment relative to AAV9, Liver DNA (NHP): 3.027 fold
Fold Enrichment relative to AAV9, Liver RNA (NHP): 11.215 fold
Fold Enrichment relative to AAV9, Muscle (NHP): 0.000 fold

KTINGSGSPHSKRNYQQT
Fold Enrichment relative to AAV9, DRG (NHP): 0.000 fold
Fold Enrichment relative to AAV9, Brain (NHP): 0.000 fold
Fold Enrichment relative to AAV9, Heart (NHP): 0.000 fold
Fold Enrichment relative to AAV9, Liver DNA (NHP): 5.528 fold
Fold Enrichment relative to AAV9, Liver RNA (NHP): 12.781 fold
Fold Enrichment relative to AAV9, Muscle (NHP): 0.000 fold

KTINGSGSPHSKRRAQQT
Fold Enrichment relative to AAV9, DRG (NHP): 0.000 fold
Fold Enrichment relative to AAV9, Brain (NHP): 0.000 fold
Fold Enrichment relative to AAV9, Heart (NHP): 0.000 fold
Fold Enrichment relative to AAV9, Liver DNA (NHP): 5.906 fold
Fold Enrichment relative to AAV9, Liver RNA (NHP): 26.523 fold
Fold Enrichment relative to AAV9, Muscle (NHP): 0.000 fold

KTINGSGSPHSKRSYQQT
Fold Enrichment relative to AAV9, DRG (NHP): 0.000 fold
Fold Enrichment relative to AAV9, Brain (NHP): 0.000 fold
Fold Enrichment relative to AAV9, Heart (NHP): 0.000 fold
Fold Enrichment relative to AAV9, Liver DNA (NHP): 2.116 fold
Fold Enrichment relative to AAV9, Liver RNA (NHP): 28.973 fold
Fold Enrichment relative to AAV9, Muscle (NHP): 0.000 fold

KTINGSGSPHSKRVVQQT
Fold Enrichment relative to AAV9, DRG (NHP): 0.000 fold
Fold Enrichment relative to AAV9, Brain (NHP): 0.000 fold
Fold Enrichment relative to AAV9, Heart (NHP): 0.000 fold
Fold Enrichment relative to AAV9, Liver DNA (NHP): 1.639 fold
Fold Enrichment relative to AAV9, Liver RNA (NHP): 11.094 fold
Fold Enrichment relative to AAV9, Muscle (NHP): 0.000 fold

KTINGSGSPHSKRYTQQT
Fold Enrichment relative to AAV9, DRG (NHP): 0.000 fold
Fold Enrichment relative to AAV9, Brain (NHP): 0.000 fold
Fold Enrichment relative to AAV9, Heart (NHP): 0.000 fold
Fold Enrichment relative to AAV9, Liver DNA (NHP): 9.412 fold
Fold Enrichment relative to AAV9, Liver RNA (NHP): 25.267 fold
Fold Enrichment relative to AAV9, Muscle (NHP): 0.000 fold

KTINGSGSPHSKSEQQQT
Fold Enrichment relative to AAV9, DRG (NHP): 0.000 fold
Fold Enrichment relative to AAV9, Brain (NHP): 0.000 fold
Fold Enrichment relative to AAV9, Heart (NHP): 0.000 fold
Fold Enrichment relative to AAV9, Liver DNA (NHP): 1.769 fold
Fold Enrichment relative to AAV9, Liver RNA (NHP): 11.785 fold
Fold Enrichment relative to AAV9, Muscle (NHP): 0.000 fold

Source: patent publication US20260250318A1, “COMPOSITIONS AND METHODS FOR CROSSING THE BLOOD BRAIN BARRIER” (VOYAGER THERAPEUTICS, INC., priority 2022, published 2026)
